Source: PubChem BioAssay (NCI)
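Protocol summary: plate cells (96-well), add compound at 5 concentrations, incubate 48 h, interpolate endpoints linearly. TGI: concentration producing complete growth inhibition.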

Legend:
Assay in all cases: NCI tumour cell line growth inhibition, 48 h
COLO 205 colon = system: COLO 205 colon
HCT-15 colon = system: HCT-15 colon
HOP-92 NSCLC = system: HOP-92 NSCLC
IGROV1 ovarian = system: IGROV1 ovarian
K-562 leukemia = system: K-562 leukemia
MCF7 breast = system: MCF7 breast
MDA-MB-435 = system: MDA-MB-435
OVCAR-3 ovarian = system: OVCAR-3 ovarian
RXF 393 renal = system: RXF 393 renal
SK-OV-3 ovarian = system: SK-OV-3 ovarian
SN12C renal = system: SN12C renal
SW-620 colon = system: SW-620 colon
T-47D breast = system: T-47D breast
TK-10 renal = system: TK-10 renal
UO-31 renal = system: UO-31 renal

| SMILES | TGI (COLO 205 colon) | TGI (HCT-15 colon) | TGI (HOP-92 NSCLC) | TGI (IGROV1 ovarian) | TGI (K-562 leukemia) | TGI (MCF7 breast) | TGI (MDA-MB-435) | TGI (OVCAR-3 ovarian) | TGI (RXF 393 renal) | TGI (SK-OV-3 ovarian) | TGI (SN12C renal) | TGI (SW-620 colon) | TGI (T-47D breast) | TGI (TK-10 renal) | TGI (UO-31 renal) |
| --- | --- | --- | --- | --- | --- | --- | --- | --- | --- | --- | --- | --- | --- | --- | --- |
| CCOC(=O)c1cc2c([N+](=O)[O-])c(NC(C)=O)ccc2s1 | > 100 µM | > 100 µM | > 100 µM | > 100 µM | > 100 µM | > 100 µM | > 100 µM | > 100 µM | > 100 µM | > 100 µM | > 100 µM | > 100 µM | 61.2 µM | > 100 µM | > 100 µM |
| Cc1cccc(N2C(=O)C3ON(C(C(N)=O)c4ccccc4)C(c4c5ccccc5c(Cl)c5ccccc45)C3C2=O)c1C (stereo not given) | 16.7 µM | 22 µM | 22.6 µM | 32.4 µM | > 50 µM | 17.9 µM | 14.6 µM | 17.5 µM | 13.5 µM | > 50 µM | 15.6 µM | > 50 µM | 32.1 µM | 25.3 µM | 24.2 µM |
| Cc1cn(C2CC(N)C(CN)O2)c(=O)[nH]c1=O (stereo not given) | > 100 µM | > 100 µM | > 100 µM | > 100 µM | > 100 µM | > 100 µM | > 100 µM | > 100 µM | > 100 µM | > 100 µM | > 100 µM | > 100 µM | > 100 µM | > 100 µM | > 100 µM |
| CC[C@@H]1CC[C@@H]2[C@H](CC[C@]3(C)[C@@H](O)CC[C@@H]23)[C@H]1C(=O)O | > 100 µM | > 100 µM | > 100 µM | > 100 µM | > 100 µM | > 100 µM | > 100 µM | > 100 µM | > 100 µM | > 100 µM | > 100 µM | > 100 µM | > 100 µM | > 100 µM | > 100 µM |
| CC(=O)NC1C(OCc2ccccc2)OC(CO)C(O)C1OCC(=O)N[C@@H](C)C(=O)N[C@H](CCC(=O)NCCNCCNc1c2ccccc2nc2cccc([N+](=O)[O-])c12)C(N)=O (stereo not given in full) | > 100 µM | > 100 µM | 66.5 µM | 32.7 µM | > 100 µM | > 100 µM | 71.1 µM | > 100 µM | 64 µM | > 100 µM | > 100 µM | > 100 µM | > 100 µM | > 100 µM | > 100 µM |
| C=CC(=O)c1ccc2c(c1)OCCOCCOCCOCCOCCO2 | 33 µM | 39.2 µM | 33.5 µM | > 100 µM | > 100 µM | 32.4 µM | 43.2 µM | 35.4 µM | 32.3 µM | > 100 µM | 52.8 µM | 35.2 µM | 59.4 µM | 31.1 µM | > 58 µM |
| COC(=O)C1=C(C(=O)OC)C2OC1C1C2C2(C)C(C)=C(C)C1(C)S2=O (stereo not given) | 13.8 µM | 20.5 µM | 32.7 µM | 39.3 µM | > 100 µM | > 45.3 µM | 19.4 µM | 25.5 µM | 10.6 µM | > 100 µM | 31.1 µM | 12.6 µM | 22.2 µM | 29.8 µM | 17.6 µM |
| O=c1c2ccccc2[nH]c(=S)n1-c1ccc(N=Nc2cccc3c(O)cccc23)cc1 | > 100 µM | > 100 µM | > 100 µM | > 100 µM | > 100 µM | 35.2 µM | 68.9 µM | > 100 µM | > 100 µM | > 100 µM | > 100 µM | > 100 µM | > 100 µM | > 100 µM | > 100 µM |
| Cc1cn(C2C=CC(COP(=O)(OCC3=CC(=O)c4ccccc4C3=O)N(C)CCCCCl)O2)c(=O)[nH]c1=O (stereo not given) | 10.9 µM | 20.9 µM | 20.9 µM | 22.4 µM | 21.1 µM | 20.5 µM | 3.35 µM | 19.1 µM | 15.8 µM | 23 µM | 23.9 µM | 29.3 µM | 9.26 µM | 36.5 µM | 25.4 µM |
| Cc1sc2nc3n(c(=O)c2c1C)N=CN(c1ccccc1)C3 | > 100 µM | > 100 µM | 79.8 µM | > 100 µM | > 100 µM | > 100 µM | > 100 µM | > 100 µM | > 100 µM | > 100 µM | > 100 µM | > 100 µM | > 100 µM | > 100 µM | > 100 µM |
